Reference: article PMC6273963, “Design, Synthesis, and Biological Evaluation of Some Novel Pyrrolizine Derivatives as COX Inhibitors with Anti-Inflammatory/Analgesic Activities and Low Ulcerogenic Liability” (Molecules, 2016)
Entries after “also recorded” stand apart in the source; their conditions may differ.

Key:
[1] = tested on: stomach mucosa, submucosa and mucosal glands; experiment: Histopathological study of rat stomach; format: in vivo; settings: rats of the ulcerogenicity test, haematoxylin and eosin stain
Text: The stomachs of the rats used in ulcerogenicity test were subjected to a histopathological study to visualize the deep effects of ibuprofen and tested compounds on the stomach mucosa, submucosa and mucosal glands. The specimens were stained with haematoxylin and eosin stain [33].
The study investigated the deep effect of the tested compounds on the mucosa, submucosa and mucosal gland. The stomachs which were opened longitudinally along the greater curvature were used and the specimens were taken from the stomachs of all cases. These specimens were fixed in 10% formalin solution for 72 h. The samples were processed and embedded in paraffin wax. Microtomy was done and 5 microns tissue sections were obtained and mounted on clean glass slides.

rat stomach mucosa = experiment: Acute ulcerogenicity study; format: in vivo; settings: oral, 0.48 mmol/kg; for Ulcerogenicity UI (ulcer index): three days, n = 6
Experimental: GIT toxicity is the main serious side effect of the NSAIDs. In this work, the ulcerogenicity of the novel compounds 12–19 was evaluated according to the previous reported methodology. The tested compounds 12–19 and ibuprofen were given orally in a dose of 0.48 mmol/kg.
(§1) Adult albino rats of both sex weighing 100–140 g were used in evaluation of the anti-inflammatory, analgesic, ulcerogenic activity in addition to the histopathological study of the new pyrrolizines 12–19. Animal ethical use clearance was obtained from the Ethical Committee at the College of Pharmacy, Umm Al-Qura University. Normalization of the animals with laboratory conditions were achieved by keeping them in laboratory one week before starting the experiments. Standard rat pellet diet was used for feeding animals and water ad libitum.
GIT toxicity was evaluated according to the previous report. Adult albino rats of both sexes were divided into groups of six animals each. The test compounds were dissolved first in 0.5 mL DMSO, then CMC (1%) was added dropwise with trituration. Rats were fasted 20 h before drug administration. The eight tested compounds and ibuprofen were given orally in a dose of 0.24 and 0.48 mmol/kg/day suspended in 1% CMC, while the control group received vehicle (1% CMC containing few drops of DMSO). Rats were then fasted for 2 h, allowed to feed for 2 h then fasted again for another 20 h. Other doses were given in the second and third days. In the fourth day, Pentobarbital (60 mg/kg IP) was used to induce deep anesthesia then rats were sacrificed. The stomachs were removed, opened along with the greater curvature and rinsed with 0.9% saline. The number of mucosal damages (red spots) were counted using magnifying lens and their severity (ulcerogenic severity) was graded in a scale from 0 to 3 as follows: (0) normal (no injury), (0.5) red coloration, (1) spot ulcer, (1.5) hemorrhagic streaks, (2) ulcer > 3 mm, (3) ulcer > 5 mm. The ulcer index was calculated using the following equation ulcer index (UI) = UN + US + UP/10, where UN is the average number pf ulcers per animal, US is the average of severity score, UP is the percent of animal with ulcer.

[2] = tested on: carrageenan-induced rat paw edema; experiment: Carrageenan-induced rat paw edema model (anti-inflammatory activity); format: in vivo; set-up: key to Potency (anti-inflammatory activity of tested compound/ibuprofen): ratio of % inhibition of edema (compound / ibuprofen); ibuprofen = 1.00; settings: for % Inhibition in Edema Thickness 1 h: 1 h after induction of inflammation; for % Inhibition in Edema Thickness 1 h / % Inhibition in Edema Thickness 2 h / % Inhibition in Edema Thickness 3 h: IP, dose molecularly equivalent to ibuprofen, n = 6; for % Inhibition in Edema Thickness 2 h: 2 h after induction of inflammation; for % Inhibition in Edema Thickness 3 h: 3 h after induction of inflammation; for Potency (anti-inflammatory activity of tested compound/ibuprofen): after 3 h of induction of inflammation, relative to ibuprofen; for anti-inflammatory activity (in words): compared with ibuprofen and parent compound 12
Text: The carrageenan-induced rat paw edema model was utilized to investigate the anti-inflammatory activity of compounds 12–19 relative to ibuprofen as a reference drug.
as §1
The anti-inflammatory activity of the novel compounds 12–19 was evaluated in comparison with ibuprofen as a standard, using a rat paw edema model as described by Winter et al.. Adult albino rats of both sexes (100–140 gm) were used. Rats were uniformly hydrated by giving 3 mL water for each rat through gastric inoculation to reduce variability to edema response. Animals were then divided into groups of six animal each. The control group was given saline solution containing few drops of sodium carboxymethyl cellulose (CMC) 1% and DMSO. Ibuprofen (50 and 100 mg/kg) was given as standard drug. The new compounds 12–19 in a dose molecularly equivalent to ibuprofen were dissolved in 0.5 mL DMSO and CMC 1% was added dropwise with continuous triturating to complete the specified volume. The tested compounds were administered intraperitoneally (IP). The induction of inflammation was achieved by subcutaneous (SC) injection of carrageenan-sodium gel, into the sub-plantar region of the right hind paw. The dorsoventral diameter (thickness) of the right and left hind paw of each rat was measured using digital calipers with accuracy of 0.01 mm (Cole-Parmer, Vernon Hills, IL, USA). The thickness of edema was measured 1, 2 and 3 h after induction of inflammation. The left hind paw diameter served as a control for the degree of inflammation in the right hind paw. The changes in the edema thickness were expressed as mean ± SEM, Figure 4. The anti-inflammatory activity was calculated as % inhibition of inflammation = (1 − Lt/Lc) × 100. Where Lt is the mean increase in paw thickness in rats treated with the tested compounds and Lc is the mean increase in paw thickness in control group. Data were collected, and statistically analyzed by One way ANOVA followed by student-Newman-Keuls multiple comparison test, Table 2.

thermal pain (hot plate) = experiment: Hot-plate test (analgesic activity); format: in vivo, rat; settings: IP; for analgesic activity (in words): 0.24 and 0.48 mmol/kg, 2 h after injection, compared with ibuprofen
Experimental: A hot-plate was used to induce thermal pain and the cutoff time was fixed to 15 s [30]. […] The analgesic activity of the novel pyrrolizines were carried out using the thermal model (hot-plate test) according to a previous report [30]. An electronically controlled hot-plate (Harvard Apparatus Ltd., Kent, UK) was used and the cut-off time was 15 s and the temperature was adjusted to 52 ± 0.1 °C. Animals were then divided into groups of six animal each. Rats were assigned numbers of 1–6 in each group. The reference drug was given intraperitoneally at a dose of 50 mg/kg (0.24 mmol/kg) and 100 mg/kg (0.48 mmol/kg). […] The response latencies (time elapsed until licking paw or jumping) were measured and expressed as mean ± SEM. The percent changes (analgesic effects) of the tested compounds were calculated as percent change in latencies divided by baseline time (100 × (T1 − T0)/T0) and results were expressed as % change ± SEM, Figure 6.

5-LOX = tested on: 5-LOX; set-up: method as in PMID 8021931, PMID 9396390, PMID 12660020, PMID 19719242; settings: literature values, Figures 1 and 2; cited from earlier work
COX-1 = settings: cited from earlier work; for IC50: literature values, Figures 1 and 2
COX-2 = tested on: COX-2; set-up: method as in PMID 10027870, PMID 8021931, PMID 12660020; settings: literature values, Figures 1 and 2; cited from earlier work
mPGES-1 = tested on: mPGES-1; set-up: method as in PMID 19719242; settings: cell free; cited from earlier work
rat paw edema = tested on: rat paw edema; set-up: method as in PMID 19913956; settings: in comparison with ketorolac; cited from earlier work
[3] = target: T1, COX-2 (human recombinant) (Homo sapiens, UniProt P35354); experiment: COX colorimetric inhibitor screening assay, COX-2; settings: for SI (COX-2 selectivity index = IC50 of COX-1/IC50 of COX-2): in vitro
T1 sequence (P35354 18-604): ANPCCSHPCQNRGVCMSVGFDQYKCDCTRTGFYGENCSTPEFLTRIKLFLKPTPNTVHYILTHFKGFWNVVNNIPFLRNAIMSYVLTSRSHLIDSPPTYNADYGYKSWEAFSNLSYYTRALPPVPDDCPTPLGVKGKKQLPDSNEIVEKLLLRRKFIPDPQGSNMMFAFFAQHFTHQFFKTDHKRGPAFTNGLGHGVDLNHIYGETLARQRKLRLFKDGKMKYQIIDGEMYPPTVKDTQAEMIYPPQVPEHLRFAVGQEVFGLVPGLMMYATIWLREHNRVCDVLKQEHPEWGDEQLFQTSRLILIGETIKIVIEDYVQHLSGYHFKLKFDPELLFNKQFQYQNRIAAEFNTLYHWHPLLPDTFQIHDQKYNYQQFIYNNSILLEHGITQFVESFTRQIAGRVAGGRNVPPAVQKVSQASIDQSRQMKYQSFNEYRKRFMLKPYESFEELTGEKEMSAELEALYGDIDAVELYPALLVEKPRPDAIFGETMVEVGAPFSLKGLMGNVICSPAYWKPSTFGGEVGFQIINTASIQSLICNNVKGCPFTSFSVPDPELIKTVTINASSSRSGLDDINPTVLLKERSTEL

COX-1 (ovine) = target: T2, COX-1 (ovine) (Ovis aries, UniProt P05979); experiment: COX colorimetric inhibitor screening assay, COX-1
T2 sequence (P05979 25-600): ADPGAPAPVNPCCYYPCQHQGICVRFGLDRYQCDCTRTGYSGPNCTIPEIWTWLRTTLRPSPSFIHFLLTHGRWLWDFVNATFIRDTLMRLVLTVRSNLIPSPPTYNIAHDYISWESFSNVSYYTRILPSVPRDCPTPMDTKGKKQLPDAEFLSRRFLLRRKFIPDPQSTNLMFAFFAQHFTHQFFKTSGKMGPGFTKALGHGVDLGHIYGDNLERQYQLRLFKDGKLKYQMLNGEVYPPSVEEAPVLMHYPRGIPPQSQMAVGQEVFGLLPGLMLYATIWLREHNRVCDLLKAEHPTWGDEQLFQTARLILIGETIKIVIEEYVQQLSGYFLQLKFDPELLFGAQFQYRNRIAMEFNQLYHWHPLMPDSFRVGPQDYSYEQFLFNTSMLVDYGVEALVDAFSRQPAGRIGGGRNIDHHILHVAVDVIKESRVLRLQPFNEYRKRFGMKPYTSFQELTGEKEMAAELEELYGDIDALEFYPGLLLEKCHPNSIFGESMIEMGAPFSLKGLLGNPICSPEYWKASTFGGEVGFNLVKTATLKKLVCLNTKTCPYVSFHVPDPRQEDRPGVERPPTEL

Compound	histopathological findings in stomach transverse sections [1]	Ulcerogenicity % Protection (% inhibition of ulcer relative to ibuprofen) (rat stomach mucosa)	% Inhibition in Edema Thickness 1 h [2]	% Inhibition in Edema Thickness 2 h [2]	% Inhibition in Edema Thickness 3 h [2]	Potency (anti-inflammatory activity of tested compound/ibuprofen) [2]	analgesic activity (in words) (thermal pain (hot plate))	IC50 (5-LOX)	IC50 (COX-1)	IC50 (COX-2)	also measured
CC(C)Cc1ccc(C(C)C(=O)Nc2c(C#N)c3n(c2C(=O)Nc2ccc(Br)cc2)CCC3)cc1 (racemic) [Compound 19, (R,S)-N-(4-Bromophenyl)-7-cycno-6-(2-(4-isobutylphenyl)propanamido)-2,3-dihydro-1H-pyrrolizine-5-carboxamide]	normal mucosal glands with no histopathological effects	100%	13.82%	22.44%	38.79%	0.95	lower than that of ibuprofen	–	–	–	melting point: 217 to 219 °C; anti-inflammatory activity (in words) [2]: weak activity after the first hour
CC1(C)Cc2c(-c3ccccc3)c(-c3ccc(Cl)s3)c(CC(=O)O)n2C1 [Compound 3]	–	–	–	–	–	–	–	250 nM	210 nM	–	–
Cc1ccc(-c2c(-c3ccc(S(C)(=O)=O)cc3)cn3c2CCC3)cc1 [Compound 4]	–	–	–	–	–	–	–	10000 nM	700 nM	5 nM	–
COC1c2c(-c3ccccc3)c(-c3ccc(Cl)cc3)c(C)n2CC1(C)C (stereo not drawn) [Compound 5]	–	–	–	–	–	–	–	60 nM	500 nM	7500 nM	–
Cc1ccc(S(=O)(=O)NC(=O)Cc2c(-c3ccc(Cl)cc3)c(-c3ccccc3)c3n2CC(C)(C)C3)cc1 [Compound 6]	–	–	–	–	–	–	–	260 nM	–	–	IC50 (mPGES-1): 4800 nM
N#Cc1c(N)c(C(=O)Nc2ccc(C(=O)O)cc2)n2c1CCC2 [Compound 7]	–	–	–	–	–	–	–	–	–	–	reduction in rat paw edema (rat paw edema): approximately 50%
Cc1ccc(S(=O)(=O)Nc2c(C#N)c3n(c2C(=O)Nc2ccc(Br)cc2)CCC3)cc1 [Compound 17, N-(4-Bromophenyl)-7-cyano-6-(4-methylphenylsulfonamido)-2,3-dihydro-1H-pyrrolizine-5-carboxamide]	little histopathological effects such as congested blood vessels and variable degrees of leukocytes infiltration	83.69%	27.19%	40.55%	49.47%	1.21	higher analgesic activity than ibuprofen; also recorded: the most active	–	–	–	IC50 [3]: 1720 nM; SI (COX-2 selectivity index = IC50 of COX-1/IC50 of COX-2) [3]: 2.91; Ulcerogenicity UI (ulcer index) (rat stomach mucosa): 2.26; IC50 (COX-1 (ovine)): 5010 nM; analgesic potency relative to ibuprofen (thermal pain (hot plate); 0.48 mmol/kg): 1.03 to 1.27 times
N#Cc1c(NC(=O)C(=O)Nc2c(C#N)c3n(c2C(=O)Nc2ccc(Br)cc2)CCC3)c(C(=O)Nc2ccc(Br)cc2)n2c1CCC2 [Compound 18, N^1,N^2-Bis(5-((4-Bromophenyl)carbamoyl)-7-cycno-2,3-dihydro-1H-pyrrolizin-6-yl)oxalamide]	little histopathological effects such as congested blood vessels and variable degrees of leukocytes infiltration	68.18%	6.91%	17.72%	22.42%	0.55	lower than that of ibuprofen	–	–	–	IC50 [3]: 850 nM; SI (COX-2 selectivity index = IC50 of COX-1/IC50 of COX-2) [3]: 6.03; Ulcerogenicity UI (ulcer index) (rat stomach mucosa): 4.41; IC50 (COX-1 (ovine)): 5100 nM; melting point: 318 to 321 °C; anti-inflammatory activity (in words) [2]: lower activity than both ibuprofen and the parent compound 12
O=C(c1ccccc1)c1ccc2n1CCC2C(=O)O (stereo not drawn) [Ketorolac, ketorolac]	–	–	–	–	–	–	–	–	1230 nM	3600 nM	selectivity ratio for COX-1 (COX-1; COX-1 over COX-2): 2.9
CC1(C)Cc2c(-c3ccccc3)c(-c3ccc(Cl)cc3)c(CC(=O)O)n2C1 [Licofelone, licofelone]	–	–	–	–	–	–	–	180 nM	210 nM	> 30000 nM	–
